Consider one substance from US20130302888A1, “CELL CULTURE METHOD AND SYSTEM FOR ESTABLISHING AN IN VITRO MODEL OF THE INTESTINAL BARRIER” (GATTEFOSSE SAS, priority 2011, published 2013).

The subject of one data set is HT29-MTX monolayers. To be noted: pH 7.4.
Data set [1] relates to Caco-2/HT29-MTX cocultures.

For Lucifer yellow [LY], in the data set with HT29-MTX monolayers, the Papp is given as 2-3 10^−6 cm/s. The “Papp, effect of adding HT29-MTX to Caco-2 cells” value in data set [1] is reported as “drastically increases the Papp”.
